Reference: publication doi:10.1101/504357v1 (biorxiv, 2018)
≈ marks a conversion by molar mass, not a printed value.

Legend:
S. pyogenes = test: microbe, parasite or virus in culture; design: species or system Streptococcus pyogenes ATCC 19615; details: Streptococcus pyogenes, read-out: MIC (ug/mL)
HuDHFR = molecular target: T1, HuDHFR (Homo sapiens, UniProt P00374); test: DHFR inhibition assay; format: biochemical
T1 sequence (P00374 1-187): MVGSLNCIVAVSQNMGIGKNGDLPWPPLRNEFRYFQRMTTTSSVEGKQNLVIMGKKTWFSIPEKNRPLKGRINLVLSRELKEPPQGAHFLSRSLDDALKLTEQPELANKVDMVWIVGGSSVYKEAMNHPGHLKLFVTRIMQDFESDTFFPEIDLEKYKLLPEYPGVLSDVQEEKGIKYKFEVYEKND

MIC (S. pyogenes) | IC50 (HuDHFR) | SMILES
≤ 0.039 µg/mL | – | CCc1nc(N)nc(N)c1C#CC(C)c1cc2c(c(-c3ccncc3)c1)OCCO2 (stereo not drawn) [compound 20]
≤ 0.039 µg/mL | 191 ± 12 nM | CCc1nc(N)nc(N)c1C#C[C@@H](C)c1cc2c(c(-c3ccncc3)c1)OCO2 [compound 21]
≤ 0.039 µg/mL | 85 ± 10 nM | CCc1nc(N)nc(N)c1C#C[C@H](C)c1cc2c(c(-c3ccncc3)c1)OCO2 [compound 22]
≤ 0.039 µg/mL | 68 ± 7 nM | CCc1nc(N)nc(N)c1C#C[C@@H](C)c1ccc(OC)c(-c2ccncc2)c1 [compound 23]
≤ 0.039 µg/mL | 74 ± 7 nM | CCc1nc(N)nc(N)c1C#C[C@H](C)c1ccc(OC)c(-c2ccncc2)c1 [compound 24]
≤ 0.039 µg/mL | – | CCc1nc(N)nc(N)c1C#C[C@H](C)c1cc(-c2ccncc2)ccc1OC [compound 25]
≤ 0.039 µg/mL | – | CCc1nc(N)nc(N)c1C#C[C@@H](C)c1cc(-c2ccncc2)ccc1OC [compound 26]
≤ 0.039 µg/mL | – | CCc1nc(N)nc(N)c1C#C[C@@H](C)c1cc(OC)cc(-c2ccncc2)c1 [compound 27]
≤ 0.039 µg/mL | – | CCc1nc(N)nc(N)c1C#C[C@H](C)c1cc(OC)cc(-c2ccncc2)c1 [compound 28]
≤ 0.039 µg/mL | – | CCc1nc(N)nc(N)c1C#CC(C)c1cc(OC)c(OC)c(-c2ccncc2)c1 (stereo not drawn) [compound 29]
≤ 0.039 µg/mL | – | CCc1nc(N)nc(N)c1C#C[C@H](C)c1cc(OC)c(OC)c(-c2ccncc2)c1 [compound 30]
≤ 0.039 µg/mL | – | CCc1nc(N)nc(N)c1C#CC(C)c1cc(-c2ccncc2)cc2c1OCO2 (stereo not drawn) [compound 31]
0.312 µg/mL (≈ 0.831 µM) | – | CCc1nc(N)nc(N)c1C#CC(C)c1cc(O)c(O)c(-c2ccncc2)c1 (stereo not drawn) [compound 32]

The next lines start with the molecule.

SMILES | MIC (S. pyogenes) | IC50 (HuDHFR)
CCc1nc(N)nc(N)c1C#CC(C)c1cc(-c2cc(C)nc(C)c2)ccc1Cl (racemic) [compound 10] | 0.312 µg/mL (≈ 0.769 µM) | –
CCc1nc(N)nc(N)c1C#CCc1cc(OC)cc(-c2ccc(C(=O)O)cc2)c1 [compound 1] | ≤ 0.039 µg/mL | –
CCc1nc(N)nc(N)c1C#C[C@@H](C)c1cc(OC)cc(-c2ccc(C(=O)O)cc2)c1 [compound 2] | ≤ 0.039 µg/mL | –
CCc1nc(N)nc(N)c1C#C[C@H](C)c1cc(OC)cc(-c2ccc(C(=O)O)cc2)c1 [compound 3] | ≤ 0.039 µg/mL | –
CCc1nc(N)nc(N)c1C#C[C@H](C)c1cc(-c2ccc(C(=O)O)cc2)ccc1OC [compound 4] | 0.078 µg/mL (≈ 0.187 µM) | –
CCc1nc(N)nc(N)c1C#C[C@@H](C)c1cc(-c2ccc(C(=O)O)cc2)ccc1OC [compound 5] | 0.078 µg/mL (≈ 0.187 µM) | –
CCc1nc(N)nc(N)c1C#CCc1cc(-c2ccccc2C(=O)O)ccc1OC [compound 6] | 0.625 µg/mL (≈ 1.55 µM) | –
CCc1nc(N)nc(N)c1C#CCc1cc(-c2ccc(C(=O)O)cc2)ccc1OC [compound 7] | 0.078 µg/mL (≈ 0.194 µM) | –
CCc1nc(N)nc(N)c1C#C[C@H](C)c1cc(-c2cc(C)nc(C)c2)ccc1Cl [compound 9] | ≤ 0.039 µg/mL | 210 ± 18 nM
CCc1nc(N)nc(N)c1C#C[C@@H](C)c1cc(-c2cc(C)nc(C)c2)ccc1Cl [compound 11] | 0.625 µg/mL (≈ 1.54 µM) | 207 ± 13 nM
CCc1nc(N)nc(N)c1C#C[C@H](C)c1cc(-c2cc(C)nc(C)c2)ccc1OC(F)(F)F [compound 12] | 0.312 µg/mL (≈ 0.685 µM) | –
CCc1nc(N)nc(N)c1C#C[C@@H](C)c1cc(-c2cc(C)nc(C)c2)ccc1OC(F)(F)F [compound 13] | 0.156 µg/mL (≈ 0.342 µM) | 167 ± 9 nM
CCc1nc(N)nc(N)c1C#CCc1cc(-c2cc(C)nc(C)c2)ccc1OC(F)(F)F [compound 14] | 0.625 µg/mL (≈ 1.42 µM) | –
CCc1nc(N)nc(N)c1C#CC(C)c1cc(-c2cc(C)nc(C)c2)ccc1OC(F)(F)F (stereo not drawn) [compound 15] | 0.312 µg/mL (≈ 0.685 µM) | –
CCc1nc(N)nc(N)c1C#CC(C)c1cc(F)cc(-c2cc(C)nc(C)c2)c1 (stereo not drawn) [compound 16] | ≤ 0.039 µg/mL | –
CCc1nc(N)nc(N)c1C#CC(C)c1cc(-c2ccncc2)cc(F)c1OC (stereo not drawn) [compound 17] | ≤ 0.039 µg/mL | 234 ± 16 nM
CCc1nc(N)nc(N)c1C#CC(C)c1cccc(-c2cc(C)nc(C)c2)c1 (stereo not drawn) [compound 18] | ≤ 0.039 µg/mL | –
CCc1nc(N)nc(N)c1C#CC(C)c1cc2c(c(-c3cc(C)nc(C)c3)c1)OCCO2 (stereo not drawn) [compound 19] | ≤ 0.039 µg/mL | –
